Experiment [1] concerns the target LRRK2, WT (GST-tagged truncated LRRK2) (Homo sapiens, UniProt Q5S007). As to the kind of experiment: LRRK2 kinase assay (LanthaScreen), wild type. Format: biochemical. Particulars: wild type LRRK2; LanthaScreen, LRRKtide substrate. Here is the method:
(§1) LRRK2 kinase activity was measured using Lantha Screen technology from Invitrogen. GST-tagged truncated LRRK2 from Invitrogen (Cat #PV4874) was incubated with a fluorescein-labeled peptide substrate based upon ezrin/radixin/moesin (ERM), also known as LRRKtide (Invitrogen cat #PR8976A), in the presence of a dose response of compound. Upon completion, the assay was stopped and detected with a terbium labeled anti-phospho-ERM antibody (Invitrogen, cat #PR8975A). […] Using Echo acoustic dispensing, 60 nL of compound was transferred to a low volume Corning 384-well assay plate. 3 μL of a working solution of substrate (200 nM LRRKtide, 2 mM ATP) prepared in assay buffer (50 mM HEPES, pH 7.5, 3 mM MgCl2, with 2 mM DTT and 0.01% Brij35 added fresh) was added to the 60 nL compound assay plate. The kinase reaction was started with 3 μL of a working solution of LRRK2 enzyme at a concentration of 4 μg/m L. The final reaction concentrations were 100 nM LRRKtide, 1 mM ATP, 2 μg/mL LRRK2 enzyme and a compound dose response with a top dose of 3 μM. The reaction was allowed to progress at room temperature for 30 minutes and then stopped with the addition of 6 μL of detection buffer (20 mM Tris pH 7.6, 0.01% NP-40, 6 mM EDTA with 2 nM terbium labeled antiphospho-ERM). […] All final concentrations of substrate ATP and enzyme were the same.
In general terms: In TR-FRET formats the signal depends on donor and acceptor labels being close together.

Experiment [2] concerns the target mutant G2019S LRRK2 (Homo sapiens (Human), UniProt Q5S007, G2019S). Kind of experiment: LRRK2 kinase assay (LanthaScreen), G2019S mutant. Format: biochemical. The conditions noted are these: G2019S mutant LRRK2; LanthaScreen, LRRKtide substrate; read-out: LRRK2, G2019S IC50. Here is the method:
as §1

Sequence of mutant G2019S LRRK2 (Q5S007 whole entry G2019S): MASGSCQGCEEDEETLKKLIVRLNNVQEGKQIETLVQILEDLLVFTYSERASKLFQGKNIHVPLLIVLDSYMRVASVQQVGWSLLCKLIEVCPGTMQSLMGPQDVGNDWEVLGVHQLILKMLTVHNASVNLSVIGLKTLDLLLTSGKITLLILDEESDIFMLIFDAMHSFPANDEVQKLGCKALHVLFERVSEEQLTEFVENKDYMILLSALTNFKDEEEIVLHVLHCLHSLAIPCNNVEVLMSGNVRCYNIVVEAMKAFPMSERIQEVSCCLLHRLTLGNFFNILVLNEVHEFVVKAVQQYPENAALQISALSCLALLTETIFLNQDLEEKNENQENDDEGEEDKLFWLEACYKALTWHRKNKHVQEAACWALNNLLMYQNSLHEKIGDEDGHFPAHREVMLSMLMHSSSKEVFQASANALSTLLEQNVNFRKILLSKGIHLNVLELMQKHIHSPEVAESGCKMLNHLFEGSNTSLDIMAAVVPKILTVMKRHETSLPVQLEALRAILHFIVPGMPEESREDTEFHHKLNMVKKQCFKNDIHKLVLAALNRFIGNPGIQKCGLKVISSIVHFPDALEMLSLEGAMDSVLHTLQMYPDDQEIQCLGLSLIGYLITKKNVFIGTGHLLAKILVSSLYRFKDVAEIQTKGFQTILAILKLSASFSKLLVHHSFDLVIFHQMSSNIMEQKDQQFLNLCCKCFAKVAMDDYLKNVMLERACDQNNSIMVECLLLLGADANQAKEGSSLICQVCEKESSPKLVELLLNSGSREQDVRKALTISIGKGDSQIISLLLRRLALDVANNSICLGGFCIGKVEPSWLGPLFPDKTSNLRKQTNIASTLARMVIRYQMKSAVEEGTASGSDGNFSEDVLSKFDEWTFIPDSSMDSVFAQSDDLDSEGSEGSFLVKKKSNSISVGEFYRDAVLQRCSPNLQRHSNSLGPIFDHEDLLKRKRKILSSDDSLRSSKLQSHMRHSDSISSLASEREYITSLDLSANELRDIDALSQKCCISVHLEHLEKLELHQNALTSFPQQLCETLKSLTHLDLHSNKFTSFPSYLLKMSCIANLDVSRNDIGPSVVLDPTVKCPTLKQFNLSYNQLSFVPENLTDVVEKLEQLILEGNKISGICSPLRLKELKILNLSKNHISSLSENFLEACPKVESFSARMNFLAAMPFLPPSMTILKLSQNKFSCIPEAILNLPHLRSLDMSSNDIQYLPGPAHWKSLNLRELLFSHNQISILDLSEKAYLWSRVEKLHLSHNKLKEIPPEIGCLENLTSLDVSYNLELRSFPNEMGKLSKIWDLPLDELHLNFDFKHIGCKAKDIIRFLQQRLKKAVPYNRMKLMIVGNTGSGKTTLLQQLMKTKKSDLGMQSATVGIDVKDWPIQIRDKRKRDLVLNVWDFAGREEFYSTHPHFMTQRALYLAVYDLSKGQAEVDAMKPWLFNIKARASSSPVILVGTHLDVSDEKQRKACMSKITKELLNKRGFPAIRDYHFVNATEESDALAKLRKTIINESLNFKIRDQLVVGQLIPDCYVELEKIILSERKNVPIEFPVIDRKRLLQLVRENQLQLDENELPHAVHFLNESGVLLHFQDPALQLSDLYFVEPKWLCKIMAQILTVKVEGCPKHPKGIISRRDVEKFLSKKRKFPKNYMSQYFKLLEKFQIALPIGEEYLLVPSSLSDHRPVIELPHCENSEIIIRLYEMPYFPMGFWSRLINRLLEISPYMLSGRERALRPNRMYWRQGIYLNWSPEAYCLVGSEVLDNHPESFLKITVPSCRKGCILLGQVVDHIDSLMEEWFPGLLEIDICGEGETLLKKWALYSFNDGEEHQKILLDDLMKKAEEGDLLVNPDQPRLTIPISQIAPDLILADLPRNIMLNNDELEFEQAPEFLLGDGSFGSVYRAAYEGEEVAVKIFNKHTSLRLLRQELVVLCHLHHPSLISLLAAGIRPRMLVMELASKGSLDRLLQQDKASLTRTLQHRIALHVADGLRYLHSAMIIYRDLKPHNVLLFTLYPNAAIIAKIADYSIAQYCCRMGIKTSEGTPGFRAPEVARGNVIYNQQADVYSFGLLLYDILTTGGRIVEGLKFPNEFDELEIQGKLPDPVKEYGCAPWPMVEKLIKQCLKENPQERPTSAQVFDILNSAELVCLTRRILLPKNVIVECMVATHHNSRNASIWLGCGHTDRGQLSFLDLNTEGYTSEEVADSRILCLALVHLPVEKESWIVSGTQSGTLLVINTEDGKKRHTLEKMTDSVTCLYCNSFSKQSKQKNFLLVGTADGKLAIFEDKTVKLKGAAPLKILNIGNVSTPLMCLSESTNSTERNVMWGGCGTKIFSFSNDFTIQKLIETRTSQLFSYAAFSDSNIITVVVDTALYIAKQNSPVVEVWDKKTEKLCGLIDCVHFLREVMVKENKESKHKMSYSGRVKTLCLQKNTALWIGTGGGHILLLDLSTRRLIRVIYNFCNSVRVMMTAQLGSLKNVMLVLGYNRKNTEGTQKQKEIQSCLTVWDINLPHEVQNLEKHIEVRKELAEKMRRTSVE

As a reminder, the IC50 is the midpoint of a concentration-inhibition curve. Regarding `Cc1cn(Cc2nc3cnc4ccc(Cl)cc4c3n2C2CN(C)CC2(F)F)nn1` (stereo not shown) [Example 48, 8-chloro-1-(4,4-difluoro-1-methylpyrrolidin-3-yl)-2-[(4-methyl-1H-1,2,3-triazol-1-yl)methyl]-1H-imidazo[4,5-c]quinoline], the IC50 in experiment [1] turned out to be 3.27 nM; in experiment [2] it was 0.938 nM.

With `Cc1nnn(Cc2nc3cnc4ccc(Cl)cc4c3n2C2CN(C)CC2(F)F)n1` (stereo not shown) [Example 49, 8-chloro-1-(4,4-difluoro-1-methylpyrrolidin-3-yl)-2-[(5-methyl-2H-tetrazol-2-yl)methyl]-1H-imidazo[4,5-c]quinoline], the figures for the concentration for half-maximal inhibition (IC50) in experiment [1] and in experiment [2] were 4.48 nM and 1.34 nM, respectively.

`Cc1cnc(Cc2nc3cnc4ccc(Cl)cc4c3n2C2CN(C)CC2(F)F)cn1` (stereo not shown) [Example 50, 8-chloro-1-(4,4-difluoro-1-methylpyrrolidin-3-yl)-2-[(5-methylpyrazin-2-yl)methyl]-1H-imidazo[4,5-c]quinoline]: the IC50 in experiment [1] worked out at 5.06 nM; in experiment [2], 1.11 nM.

For the molecule `Cc1cc(Cc2nc3cnc4ccc(Cl)cc4c3n2C2CN(C)CC2(F)F)no1` (stereo not shown) [Example 51, 8-chloro-1-(4,4-difluoro-1-methylpyrrolidin-3-yl)-2-[(5-methyl-1,2-oxazol-3-yl)methyl]-1H-imidazo[4,5-c]quinoline], the IC50 amounted to 5.78 nM in experiment [1] and 3.49 nM in experiment [2].

In the case of `Cc1cc(Cc2nc3cnc4ccc(Cl)cc4c3n2C2CN(C)CC2(F)F)no1` (stereo not shown) [Example 52, 8-chloro-1-(4,4-difluoro-1-methylpyrrolidin-3-yl)-2-[(5-methyl-1,2-oxazol-3-yl)methyl]-1H-imidazo[4,5-c]quinoline], the values for the IC50 in experiment [1] and in experiment [2] were 15.1 nM and 12.9 nM, respectively.

For `COCc1cn(Cc2nc3cnc4ccc(F)cc4c3n2C2CN(C)CC2(F)F)nn1` (stereo not shown) [Example 53, 1-(4,4-difluoro-1-methylpyrrolidin-3-yl)-8-fluoro-2-{[4-(methoxymethyl)-1H-1,2,3-triazol-1-yl]methyl}-1H-imidazo[4,5-c]quinoline], the values for the concentration for half-maximal inhibition (IC50) in experiment [1] and in experiment [2] were 7.51 nM and 7.49 nM, respectively.

Regarding `COCc1cn(Cc2nc3cnc4ccc(Cl)cc4c3n2C2CCOCC2(F)F)nn1` (stereo not shown) [Example 55, 8-chloro-1-(3,3-difluorotetrahydro-2H-pyran-4-yl)-2-{[4-(methoxymethyl)-1H-1,2,3-triazol-1-yl]methyl}-1H-imidazo[4,5-c]quinoline], the results for the IC50 in experiment [1] and in experiment [2] were 11.3 nM and 6.49 nM, respectively.

Take `Cc1nc(Cc2nc3cnc4ccc(C#N)cc4c3n2[C@@H]2CCN(CC(F)(F)F)C2)no1` [Example 56, 2-[(5-methyl-1,2,4-oxadiazol-3-yl)methyl]-1-[(3R)-1-(2,2,2-trifluoroethyl)pyrrolidin-3-yl]-1H-imidazo[4,5-c]quinoline-8-carbonitrile]: the half-maximal inhibitory concentration (IC50) in experiment [1] was determined as 6.46 nM; in experiment [2], 6.48 nM.

On to `COc1cnn(Cc2nc3cnc4ccc(C#N)cc4c3n2[C@@H]2CCO[C@H](C)C2)c1` [Example 57, 2-[(4-methoxy-1H-pyrazol-1-yl)methyl]-1-[(2R,4R)-2-methyltetrahydro-2H-pyran-4-yl]-1H-imidazo[4,5-c]quinoline-8-carbonitrile], for which the figures for the IC50 in experiment [1] and in experiment [2] were 7.43 nM and 5.4 nM, respectively.

Regarding `C[C@@H]1C[C@H](n2c(Cc3nccs3)nc3cnc4ccc(Cl)cc4c32)CCO1` [Example 58, 8-chloro-1-[(2R,4R)-2-methyltetrahydro-2H-pyran-4-yl]-2-(1,3-thiazol-2-ylmethyl)-1H-imidazo[4,5-c]quinoline], the concentration for half-maximal inhibition (IC50) in experiment [1] is 5.35 nM; in experiment [2], 3 nM.

`Cc1cc(Cc2nc3cnc4ccc(Cl)cc4c3n2C2CCOC(C(F)F)C2)no1` (stereo not drawn) [Example 59, 8-chloro-1-[cis-2-(difluoromethyl)tetrahydro-2H-pyran-4-yl]-2-[(5-methyl-1,2-oxazol-3-yl)methyl]-1H-imidazo[4,5-c]quinoline]: the figures for the IC50 in experiment [1] and in experiment [2] were 6.6 nM and 8.16 nM, respectively.

For the molecule `C[C@@H]1C[C@H](n2c(Cc3nccs3)nc3cnc4ccc(C#N)cc4c32)CCO1` [Example 61, 1-[(2R,4R)-2-methyltetrahydro-2H-pyran-4-yl]-2-(1,3-thiazol-2-ylmethyl)-1H-imidazo[4,5-c]quinoline-8-carbonitrile], the figures for the IC50 in experiment [1] and in experiment [2] were 5.79 nM and 4.17 nM, respectively.

In the case of `Cc1cn(Cc2nc3cnc4ccc(Cl)cc4c3n2[C@@H]2CCN(C)C2)nn1` [Example 62, 8-chloro-1-[(3R)-1-methylpyrrolidin-3-yl]-2-[(4-methyl-1H-1,2,3-triazol-1-yl)methyl]-1H-imidazo[4,5-c]quinoline], the 50% inhibitory concentration (IC50) in experiment [1] was 5.78 nM; in experiment [2], 6.5 nM.

With `C[C@@H]1C[C@H](n2c(Cc3csnn3)nc3cnc4ccc(C(F)(F)F)cc4c32)CCO1` [Example 63, 1-[(2R,4R)-2-methyltetrahydro-2H-pyran-4-yl]-2-(1,2,3-thiadiazol-4-ylmethyl)-8-(trifluoromethyl)-1H-imidazo[4,5-c]quinoline], the 50% inhibitory concentration (IC50) came to 6.96 nM in experiment [1] and 3.04 nM in experiment [2].

With `C[C@@H]1C[C@H](n2c(Cc3nccs3)nc3cnc4ccc(F)cc4c32)CCO1` [Example 64, 8-fluoro-1-[(2R,4R)-2-methyltetrahydro-2H-pyran-4-yl]-2-(1,3-thiazol-2-ylmethyl)-1H-imidazo[4,5-c]quinoline], the IC50 in experiment [1] worked out at 9.8 nM; in experiment [2], 6.87 nM.

Consider `C[C@@H]1C[C@H](n2c(Cn3cncn3)nc3cnc4ccc(C(F)(F)F)cc4c32)CCO1` [Example 66, 1-[(2R,4R)-2-methyltetrahydro-2H-pyran-4-yl]-2-(1H-1,2,4-triazol-1-ylmethyl)-8-(trifluoromethyl)-1H-imidazo[4,5-c]quinoline], for which the half-inhibitory concentration (IC50) in experiment [1] came to 8.32 nM; in experiment [2], 8.01 nM.

Turning to `Cc1cnc(Cc2nc3cnc4ccc(Cl)cc4c3n2[C@@H]2CCN(C)C2)cn1` [Example 67, 8-chloro-2-[(5-methylpyrazin-2-yl)methyl]-1-[(3R)-1-methylpyrrolidin-3-yl]-1H-imidazo[4,5-c]quinoline], the IC50 stood at 8.03 nM in experiment [1] and 8.55 nM in experiment [2].

With `C[C@@H]1C[C@H](n2c(Cc3cscn3)nc3cnc4ccc(C(F)(F)F)cc4c32)CCO1` [Example 69, 1-[(2R,4R)-2-methyltetrahydro-2H-pyran-4-yl]-2-(1,3-thiazol-4-ylmethyl)-8-(trifluoromethyl)-1H-imidazo[4,5-c]quinoline], the half-inhibitory concentration (IC50) was determined as 7.39 nM in experiment [1] and 3.33 nM in experiment [2].

With `Cc1nnc(Cc2nc3cnc4ccc(C(F)(F)F)cc4c3n2[C@@H]2CCO[C@H](C)C2)o1` [Example 70, 2-[(5-methyl-1,3,4-oxadiazol-2-yl)methyl]-1-[(2R,4R)-2-methyltetrahydro-2H-pyran-4-yl]-8-(trifluoromethyl)-1H-imidazo[4,5-c]quinoline], the half-inhibitory concentration (IC50) in experiment [1] worked out at 13.7 nM; in experiment [2], 7.59 nM.

As for `CC1(C)CC(n2c(Cn3cncn3)nc3cnc4ccc(Cl)cc4c32)CCO1` (stereo not shown) [Example 71, 8-chloro-1-(2,2-dimethyltetrahydro-2H-pyran-4-yl)-2-(1H-1,2,4-triazol-1-ylmethyl)-1H-imidazo[4,5-c]quinoline], the figures for the half-maximal inhibitory concentration (IC50) in experiment [1] and in experiment [2] were 13.7 nM and 11.9 nM, respectively.

Consider `COc1cnn(Cc2nc3cnc4ccc(Cl)cc4c3n2CC(C)(F)F)c1` [Example 72, 8-chloro-1-(2,2-difluoropropyl)-2-[(4-methoxy-1H-pyrazol-1-yl)methyl]-1H-imidazo[4,5-c]quinoline], for which the half-inhibitory concentration (IC50) in experiment [1] was determined as 12.1 nM; in experiment [2] it was 7.17 nM.

For the molecule `C[C@@H]1C[C@H](n2c(Cc3cnc(C(F)(F)F)cn3)nc3cnc4ccc(F)cc4c32)CCO1` [Example 73, 8-fluoro-1-[(2R,4R)-2-methyltetrahydro-2H-pyran-4-yl]-2-{[5-(trifluoromethyl)pyrazin-2-yl]methyl}-1H-imidazo[4,5-c]quinoline], the IC50 in experiment [1] worked out at 16.9 nM; in experiment [2] it was 13 nM.

Consider `Cc1nnc(Cc2nc3cnc4ccc(C(F)(F)F)cc4c3n2[C@@H]2CCO[C@H](C)C2)s1` [Example 74, 1-[(2R,4R)-2-methyltetrahydro-2H-pyran-4-yl]-2-[(5-methyl-1,3,4-thiadiazol-2-yl)methyl]-8-(trifluoromethyl)-1H-imidazo[4,5-c]quinoline], for which the half-maximal inhibitory concentration (IC50) in experiment [1] stood at 26.1 nM; in experiment [2], 13.5 nM.

Regarding `Cc1nc(Cc2nc3cnc4ccc(Cl)cc4c3n2C2CCOCC2(F)F)no1` (stereo not shown) [Example 75], the results for the half-maximal inhibitory concentration (IC50) in experiment [1] and in experiment [2] were 25.7 nM and 26.5 nM, respectively.

For the molecule `Cc1cc(Cc2nc3cnc4ccc(C(F)(F)F)cc4c3n2[C@@H]2CCO[C@H](C)C2)ncn1` [Example 76, 2-[(6-methylpyrimidin-4-yl)methyl]-1-[(2R,4R)-2-methyltetrahydro-2H-pyran-4-yl]-8-(trifluoromethyl)-1H-imidazo[4,5-c]quinoline], the half-inhibitory concentration (IC50) in experiment [1] is 17.3 nM; in experiment [2] it was 12 nM.

As to `CC(C#N)Cc1nc2cnc3ccc(Cl)cc3c2n1[C@@H]1CCO[C@H](C)C1` (stereo partly drawn) [Example 78, 3-{8-chloro-1-[(2R,4R)-2-methyltetrahydro-2H-pyran-4-yl]-1H-imidazo[4,5-c]quinolin-2-yl}-2-methylpropanenitrile], the concentration for half-maximal inhibition (IC50) in experiment [1] is 25.8 nM; in experiment [2], 13.2 nM.

The values above are taken from patent US11312713B2, “Imidazo[4,5-C]quinoline derivatives as LRRK2 inhibitors” (Pfizer Inc., priority 2017, dated 2022).
